Results as given in patent publication US11000033B2, “Ketone or oxime compound, and herbicide” (NISSAN CHEMICAL CORPORATION, priority 2014, dated 2021).

Assays:
Type in all cases: in vivo
[1] = test system: Echinochloa oryzacola Vasing.; experiment: Test Example 1: herbicidal activity, application before weed generation in submerged conditions (symbol A); settings: application herbicide amount 320 g/ha
In short: (§1)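 Pre-emergence, paddy conditions: emulsifiable formulation diluted in water, dosed onto floodwater (4 cm depth) on sowing day. Alluvial soil; weeds sown mixed; rice transplanted at 2.5-leaf stage. Greenhouse 25–30 °C, 3 wk. Score 0–5 (5 = ≥90% kill, 0 = ≤5%).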

Monochoria vaginalis = experiment: Test Example 1: herbicidal activity, application before weed generation in submerged conditions (symbol C); settings: application herbicide amount 320 g/ha
In short: as §1

transplanted rice plant = experiment: Test Example 1: effect on crop, application before weed generation in submerged conditions (symbol a); settings: application herbicide amount 320 g/ha
In short: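 Rice at 2.5 leaf stage transplanted into submerged soil (4 cm depth) sown with three weed species; herbicide applied before weed emergence.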

[2] = test system: directly sowed rice plant; experiment: Test Example 3: effect on crop by foliage application, Wagner pot (symbol b); settings: application herbicide amount 320 g/ha
In short: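 Steps: fill a 1/10000-are Wagner pot with alluvial soil; add water and mix to submerge at 0.1–0.5 cm depth; sow rice plus Echinochloa crus-galli var. crus-galli, Leptochloa chinensis and Cyperus difformis; grow in a 25–30 °C greenhouse.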

Lolium multiflorum Lam. [3] = experiment: Test Example 4: herbicidal effect by soil treatment (symbol K); settings: application herbicide amount 320 g/ha
In short: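 Seeds were sown in sterilized diluvial soil, covered with about 1.5 cm of soil, and the soil surface was sprayed with a water-diluted emulsion of the compound at a predetermined rate. Plants grew in a greenhouse at 25° C. to 30° C.; effects were scored visually 3 weeks after application.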

soybean = experiment: Test Example 4: effect on crop by soil treatment (symbol d); settings: application herbicide amount 320 g/ha
In short: (§2)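 Sterilized diluvial soil, spot sowing, ~1.5 cm soil cover; greenhouse 25–30° C.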

rice = experiment: Test Example 4: effect on crop by soil treatment (symbol b); settings: application herbicide amount 320 g/ha
In short: as §2

Digitaria ciliaris = experiment: Test Example 5: herbicidal effect by foliage application, plastic box (symbol F); settings: 320 g/ha, 3 weeks after application
In short: (§3)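 Emulsion formulation, diluted with water to the intended rate, was applied uniformly to leaves by small sprayer. Recipients were 14-day greenhouse-grown seedlings (25° C. to 30° C.). Assessment followed at 3 weeks.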

[4] = test system: Echinochloa crus-galli var. crus-galli; experiment: Test Example 5: herbicidal effect by foliage application, plastic box (symbol H); settings: 320 g/ha, 3 weeks after application
In short: as §3

Alopecurus myosuroides = experiment: Test Example 5: herbicidal effect by foliage application, plastic box (symbol J); settings: 320 g/ha, 3 weeks after application
In short: as §3

Lolium multiflorum Lam. [5] = experiment: Test Example 5: herbicidal effect by foliage application, plastic box (symbol K); settings: 320 g/ha, 3 weeks after application
In short: as §3

Abutilon theophrasti = experiment: Test Example 5: herbicidal effect by foliage application, plastic box (symbol M); settings: 320 g/ha, 3 weeks after application
In short: as §3

Amaranthus retroflexus = experiment: Test Example 5: herbicidal effect by foliage application, plastic box (symbol N); settings: 320 g/ha, 3 weeks after application
In short: as §3

corn = experiment: Test Example 5: effect on crop by foliage application, plastic box (symbol c); settings: 320 g/ha, 3 weeks after application
In short: (§4)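 Greenhouse test at 25° C. to 30° C. Seeds of crops and weeds were spot-sown in boxes of sterilized diluvial soil under roughly 1.5 cm soil cover, then grown for foliage treatment.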

rice plant = experiment: Test Example 5: effect on crop by foliage application, plastic box (symbol b); settings: 320 g/ha, 3 weeks after application
In short: as §4

Structure (SMILES): CON=C(C)CC1CC(O)=C(c2c(C)cc(OCc3ccncc3)cc2C)C1=O (mixture of isomers) [6-053]
- Herbicidal effect grade, A: Echinochloa oryzacola Vasing. [1]: 4 (Herbicidal ratio of 70% or higher and lower than 90%)
- Herbicidal effect grade, C: Monochoria vaginalis (Monochoria vaginalis): 1 (Herbicidal ratio of 5% or higher and lower than 20%)
- Effect grade on crop, a: transplanted rice plant (transplanted rice plant): 3 (Herbicidal ratio of 40% or higher and lower than 70%)
- effect on crop b (directly sowed rice plant), grade 0-5 [2]: 5 (Herbicidal ratio of 90% or more (almost completely withered))
- K: Lolium multiflorum Lam., herbicidal effect grade (Lolium multiflorum Lam. [3]): 0 (Herbicidal ratio of 5% or lower (almost no effect))
- d: soybean, effect on crop grade (soybean): 0 (Herbicidal ratio of 5% or lower (almost no effect))
- b: directly sowed rice plant, effect on crop grade (rice): 2 (Herbicidal ratio of 20% or higher and lower than 40%)
- F: Digitaria ciliaris, herbicidal effect grade (Digitaria ciliaris): 5 (Herbicidal ratio of 90% or more (almost completely withered))
- H: Echinochloa crus-galli var. crus-galli, herbicidal effect grade [4]: 5 (Herbicidal ratio of 90% or more (almost completely withered))
- J: Alopecurus myosuroides, herbicidal effect grade (Alopecurus myosuroides): 3 (Herbicidal ratio of 40% or higher and lower than 70%)
- K: Lolium multiflorum Lam., herbicidal effect grade (Lolium multiflorum Lam. [5]): 5 (Herbicidal ratio of 90% or more (almost completely withered))
- M: Abutilon theophrasti, herbicidal effect grade (Abutilon theophrasti): 0 (Herbicidal ratio of 5% or lower (almost no effect))
- N: Amaranthus retroflexus, herbicidal effect grade (Amaranthus retroflexus): 0 (Herbicidal ratio of 5% or lower (almost no effect))
- c: corn, effect on crop grade (corn): 2 (Herbicidal ratio of 20% or higher and lower than 40%)
- b: directly sowed rice plant, effect on crop grade (rice plant): 3 (Herbicidal ratio of 40% or higher and lower than 70%)

Structure (SMILES): CON=C(C)CC1CC(O)=C(c2c(C)cc(-c3ccc(OC(F)(F)F)cc3)cc2C)C1=O (mixture of isomers) [6-056]
- Herbicidal effect grade, A: Echinochloa oryzacola Vasing. [1]: 3 (Herbicidal ratio of 40% or higher and lower than 70%)
- Herbicidal effect grade, C: Monochoria vaginalis (Monochoria vaginalis): 0 (Herbicidal ratio of 5% or lower (almost no effect))
- Effect grade on crop, a: transplanted rice plant (transplanted rice plant): 0 (Herbicidal ratio of 5% or lower (almost no effect))
- effect on crop b (directly sowed rice plant), grade 0-5 [2]: 5 (Herbicidal ratio of 90% or more (almost completely withered))
- K: Lolium multiflorum Lam., herbicidal effect grade (Lolium multiflorum Lam. [3]): 0 (Herbicidal ratio of 5% or lower (almost no effect))
- d: soybean, effect on crop grade (soybean): 0 (Herbicidal ratio of 5% or lower (almost no effect))
- b: directly sowed rice plant, effect on crop grade (rice): 1 (Herbicidal ratio of 5% or higher and lower than 20%)
- F: Digitaria ciliaris, herbicidal effect (criteria of Test Example 1) (Digitaria ciliaris): 5 (Herbicidal ratio of 90% or more (almost completely withered))
- H: Echinochloa crus-galli var. crus-galli, herbicidal effect (criteria of Test Example 1) [4]: 4 (Herbicidal ratio of 70% or higher and lower than 90%)
- J: Alopecurus myosuroides, herbicidal effect (criteria of Test Example 1) (Alopecurus myosuroides): 3 (Herbicidal ratio of 40% or higher and lower than 70%)
- K: Lolium multiflorum Lam., herbicidal effect (criteria of Test Example 1) (Lolium multiflorum Lam. [5]): 4 (Herbicidal ratio of 70% or higher and lower than 90%)
- M: Abutilon theophrasti, herbicidal effect (criteria of Test Example 1) (Abutilon theophrasti): 0 (Herbicidal ratio of 5% or lower (almost no effect))
- N: Amaranthus retroflexus, herbicidal effect (criteria of Test Example 1) (Amaranthus retroflexus): 0 (Herbicidal ratio of 5% or lower (almost no effect))
- c: corn, effect on crop (criteria of Test Example 1) (corn): 1 (Herbicidal ratio of 5% or higher and lower than 20%)
- b: directly sowed rice plant, effect on crop (criteria of Test Example 1) (rice plant): 2 (Herbicidal ratio of 20% or higher and lower than 40%)

Structure (SMILES): CON=C(C)CC1CC(OC(=O)COc2ccccc2)=C(c2c(C)cc(-c3ccc(Cl)cc3)cc2C)C1=O (mixture of isomers) [6-061]
- Herbicidal effect grade, A: Echinochloa oryzacola Vasing. [1]: 5 (Herbicidal ratio of 90% or more (almost completely withered))
- Herbicidal effect grade, C: Monochoria vaginalis (Monochoria vaginalis): 1 (Herbicidal ratio of 5% or higher and lower than 20%)
- Effect grade on crop, a: transplanted rice plant (transplanted rice plant): 5 (Herbicidal ratio of 90% or more (almost completely withered))
- effect on crop b (directly sowed rice plant), grade 0-5 [2]: 5 (Herbicidal ratio of 90% or more (almost completely withered))
- K: Lolium multiflorum Lam., herbicidal effect grade (Lolium multiflorum Lam. [3]): 5 (Herbicidal ratio of 90% or more (almost completely withered))
- d: soybean, effect on crop grade (soybean): 0 (Herbicidal ratio of 5% or lower (almost no effect))
- b: directly sowed rice plant, effect on crop grade (rice): 5 (Herbicidal ratio of 90% or more (almost completely withered))
- F: Digitaria ciliaris, herbicidal effect (criteria of Test Example 1) (Digitaria ciliaris): 5 (Herbicidal ratio of 90% or more (almost completely withered))
- H: Echinochloa crus-galli var. crus-galli, herbicidal effect (criteria of Test Example 1) [4]: 5 (Herbicidal ratio of 90% or more (almost completely withered))
- J: Alopecurus myosuroides, herbicidal effect (criteria of Test Example 1) (Alopecurus myosuroides): 5 (Herbicidal ratio of 90% or more (almost completely withered))
- K: Lolium multiflorum Lam., herbicidal effect (criteria of Test Example 1) (Lolium multiflorum Lam. [5]): 5 (Herbicidal ratio of 90% or more (almost completely withered))
- M: Abutilon theophrasti, herbicidal effect (criteria of Test Example 1) (Abutilon theophrasti): 4 (Herbicidal ratio of 70% or higher and lower than 90%)
- N: Amaranthus retroflexus, herbicidal effect (criteria of Test Example 1) (Amaranthus retroflexus): 1 (Herbicidal ratio of 5% or higher and lower than 20%)
- c: corn, effect on crop (criteria of Test Example 1) (corn): 5 (Herbicidal ratio of 90% or more (almost completely withered))
- b: directly sowed rice plant, effect on crop (criteria of Test Example 1) (rice plant): 5 (Herbicidal ratio of 90% or more (almost completely withered))

Structure (SMILES): CON=C(C)CC1CC(OC(=O)N2CCOCC2)=C(c2c(C)cc(-c3ccc(Cl)cc3)cc2C)C1=O (mixture of isomers) [6-062]
- Herbicidal effect grade, A: Echinochloa oryzacola Vasing. [1]: 5 (Herbicidal ratio of 90% or more (almost completely withered))
- Herbicidal effect grade, C: Monochoria vaginalis (Monochoria vaginalis): 4 (Herbicidal ratio of 70% or higher and lower than 90%)
- Effect grade on crop, a: transplanted rice plant (transplanted rice plant): 5 (Herbicidal ratio of 90% or more (almost completely withered))
- effect on crop b (directly sowed rice plant), grade 0-5 [2]: 5 (Herbicidal ratio of 90% or more (almost completely withered))
- K: Lolium multiflorum Lam., herbicidal effect grade (Lolium multiflorum Lam. [3]): 0 (Herbicidal ratio of 5% or lower (almost no effect))
- d: soybean, effect on crop grade (soybean): 0 (Herbicidal ratio of 5% or lower (almost no effect))
- b: directly sowed rice plant, effect on crop grade (rice): 0 (Herbicidal ratio of 5% or lower (almost no effect))
- F: Digitaria ciliaris, herbicidal effect (criteria of Test Example 1) (Digitaria ciliaris): 5 (Herbicidal ratio of 90% or more (almost completely withered))
- H: Echinochloa crus-galli var. crus-galli, herbicidal effect (criteria of Test Example 1) [4]: 5 (Herbicidal ratio of 90% or more (almost completely withered))
- J: Alopecurus myosuroides, herbicidal effect (criteria of Test Example 1) (Alopecurus myosuroides): 5 (Herbicidal ratio of 90% or more (almost completely withered))
- K: Lolium multiflorum Lam., herbicidal effect (criteria of Test Example 1) (Lolium multiflorum Lam. [5]): 4 (Herbicidal ratio of 70% or higher and lower than 90%)
- M: Abutilon theophrasti, herbicidal effect (criteria of Test Example 1) (Abutilon theophrasti): 3 (Herbicidal ratio of 40% or higher and lower than 70%)
- N: Amaranthus retroflexus, herbicidal effect (criteria of Test Example 1) (Amaranthus retroflexus): 1 (Herbicidal ratio of 5% or higher and lower than 20%)
- c: corn, effect on crop (criteria of Test Example 1) (corn): 5 (Herbicidal ratio of 90% or more (almost completely withered))
- b: directly sowed rice plant, effect on crop (criteria of Test Example 1) (rice plant): 5 (Herbicidal ratio of 90% or more (almost completely withered))

Structure (SMILES): CC(CC1CC(O)=C(c2c(C)cc(C)cc2C)C1=O)=NOCc1ccccc1 (centres unmarked) [1-020]
- Herbicidal effect grade, A: Echinochloa oryzacola Vasing. [1]: 5 (Herbicidal ratio of 90% or more (almost completely withered))
- Herbicidal effect grade, C: Monochoria vaginalis (Monochoria vaginalis): 4 (Herbicidal ratio of 70% or higher and lower than 90%)
- Effect grade on crop, a: transplanted rice plant (transplanted rice plant): 5 (Herbicidal ratio of 90% or more (almost completely withered))
- effect on crop b (directly sowed rice plant), grade 0-5 [2]: 5 (Herbicidal ratio of 90% or more (almost completely withered))
- K (Lolium multiflorum Lam.) herbicidal effect grade (Lolium multiflorum Lam. [3]): 5 (Herbicidal ratio of 90% or more (almost completely withered))
- d (soybean) effect on crop grade (soybean): 0 (Herbicidal ratio of 5% or lower (almost no effect))
- b (directly sowed rice plant) effect on crop grade (rice): 5 (Herbicidal ratio of 90% or more (almost completely withered))
- F: Digitaria ciliaris, herbicidal effect grade (Digitaria ciliaris): 5 (Herbicidal ratio of 90% or more (almost completely withered))
- H: Echinochloa crus-galli var. crus-galli, herbicidal effect grade [4]: 5 (Herbicidal ratio of 90% or more (almost completely withered))
- J: Alopecurus myosuroides, herbicidal effect grade (Alopecurus myosuroides): 5 (Herbicidal ratio of 90% or more (almost completely withered))
- K: Lolium multiflorum Lam., herbicidal effect grade (Lolium multiflorum Lam. [5]): 5 (Herbicidal ratio of 90% or more (almost completely withered))
- M: Abutilon theophrasti, herbicidal effect grade (Abutilon theophrasti): 3 (Herbicidal ratio of 40% or higher and lower than 70%)
- c: corn, effect on crop grade (corn): 1 (Herbicidal ratio of 5% or higher and lower than 20%)
- b: directly sowed rice plant, effect on crop grade (rice plant): 5 (Herbicidal ratio of 90% or more (almost completely withered))
